Data reported in ChEMBL document CHEMBL5113526, “Design, Synthesis, and Biological Evaluation of Androgen Receptor Degrading and Antagonizing Bifunctional Steroidal Analogs for the Treatment of Advanced Prostate Cancer” (J Med Chem, 2022).

How the values were obtained:
LNCaP [1] = experiment: cells; details: Homo sapiens
Description: Antiproliferative activity against human LNCAP cells assessed as reduction in cell viability measured after 6 days by CellTiter-Glo assay

Androgen receptor [2] = biological target: T1, Androgen receptor (Homo sapiens, UniProt P10275); experiment: Antagonist activity at DHT-induced Androgen receptor transcriptional activity in human HEK293 cells measured after 24 hrs by Steady-Glo reagent based assay; type: cell-based
T1 sequence (P10275 whole entry): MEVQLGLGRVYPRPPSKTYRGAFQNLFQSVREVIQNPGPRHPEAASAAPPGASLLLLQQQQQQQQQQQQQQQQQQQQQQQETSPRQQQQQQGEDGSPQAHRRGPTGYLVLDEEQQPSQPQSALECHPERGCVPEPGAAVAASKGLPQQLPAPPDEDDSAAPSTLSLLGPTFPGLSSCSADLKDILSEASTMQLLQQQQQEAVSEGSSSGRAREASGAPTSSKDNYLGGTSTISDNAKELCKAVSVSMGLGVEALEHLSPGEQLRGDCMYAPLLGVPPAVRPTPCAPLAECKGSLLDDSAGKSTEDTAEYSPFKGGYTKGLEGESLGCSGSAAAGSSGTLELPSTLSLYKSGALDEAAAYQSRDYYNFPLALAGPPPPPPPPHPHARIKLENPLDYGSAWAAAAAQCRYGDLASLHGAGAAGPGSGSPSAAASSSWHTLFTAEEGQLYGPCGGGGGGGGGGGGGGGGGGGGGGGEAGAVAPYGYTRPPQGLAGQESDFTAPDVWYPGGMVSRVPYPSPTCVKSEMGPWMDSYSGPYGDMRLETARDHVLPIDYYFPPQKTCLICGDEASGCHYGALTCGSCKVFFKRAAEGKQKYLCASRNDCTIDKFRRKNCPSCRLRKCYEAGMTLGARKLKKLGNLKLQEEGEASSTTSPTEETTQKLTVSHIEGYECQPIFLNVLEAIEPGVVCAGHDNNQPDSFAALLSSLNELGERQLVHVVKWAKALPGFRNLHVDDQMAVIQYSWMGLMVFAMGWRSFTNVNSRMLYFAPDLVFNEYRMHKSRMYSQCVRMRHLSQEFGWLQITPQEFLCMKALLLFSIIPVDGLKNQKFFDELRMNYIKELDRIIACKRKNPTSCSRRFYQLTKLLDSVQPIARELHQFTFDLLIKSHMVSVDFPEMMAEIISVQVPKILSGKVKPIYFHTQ

LNCaP [3] = experiment: Antiproliferative activity against human LNCAP cells assessed as reduction in cell viability at 10 uM measured after 6 days by CellTiterGlo assay relative to control; type: functional; details: Homo sapiens, LNCaP, time 6 day
Androgen receptor [4] = biological target: T1, Androgen receptor; experiment: Induction of AR degradation in human LNCap cells incubated for 24 hrs by sandwich ELISA analysis; type: cell-based
[5] = biological target: T2, Steroid 17-alpha-hydroxylase/17,20 lyase (Homo sapiens, UniProt P05093); experiment: Inhibition of human recombinant CYP17A1 incubated for 5 mins in presence of NADPH by LC-MS/MS analysis; type: ADME
T2 sequence (P05093 whole entry): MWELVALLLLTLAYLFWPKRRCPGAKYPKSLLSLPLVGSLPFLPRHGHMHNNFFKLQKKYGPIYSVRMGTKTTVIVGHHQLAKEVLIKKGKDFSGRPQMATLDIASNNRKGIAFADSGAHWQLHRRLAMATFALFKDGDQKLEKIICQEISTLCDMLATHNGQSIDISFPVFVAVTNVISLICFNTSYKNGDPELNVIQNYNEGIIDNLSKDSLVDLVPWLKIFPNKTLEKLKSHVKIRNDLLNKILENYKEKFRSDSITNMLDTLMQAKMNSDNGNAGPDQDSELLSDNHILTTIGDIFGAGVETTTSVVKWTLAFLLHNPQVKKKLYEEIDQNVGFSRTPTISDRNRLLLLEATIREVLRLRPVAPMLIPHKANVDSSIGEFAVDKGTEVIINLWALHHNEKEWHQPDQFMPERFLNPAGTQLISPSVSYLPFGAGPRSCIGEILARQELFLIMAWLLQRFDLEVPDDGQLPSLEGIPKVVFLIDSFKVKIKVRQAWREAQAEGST

| Compound | IC50 (LNCaP [1]) | IC50 (Androgen receptor [2]) | inhibition at 10 µM (LNCaP [3]) | DC50 (Androgen receptor [4]) | IC50 [5] |
| --- | --- | --- | --- | --- | --- |
| COc1cncc(C2=CC[C@H]3[C@@H]4CC=C5C[C@@H](NC(=O)c6ccnnc6)CC[C@]5(C)[C@H]4CC[C@]23C)c1 | 646 nM | 914 nM | 73.7% | 38400 nM |  |
| C[C@]12CC[C@H](NC(=O)c3cccnc3)CC1=CC[C@@H]1[C@@H]2CC[C@]2(C)C(n3cnc4ccccc43)=CC[C@@H]12 | 1600 nM |  | 109% |  |  |
| C[C@]12CC[C@H](NC(=O)c3ccnnc3)CC1=CC[C@@H]1[C@@H]2CC[C@]2(C)C(n3ccnc3)=CC[C@@H]12 | 382 nM | 981 nM | 92.4% | 2760 nM |  |
| Cc1cn(C2=CC[C@H]3[C@@H]4CC=C5C[C@@H](NC(=O)c6cccnc6)CC[C@]5(C)[C@H]4CC[C@]23C)cn1 | 933 nM | 1280 nM | 103% | 3580 nM |  |
| Cc1cncc(C2=CC[C@H]3[C@@H]4CC=C5C[C@@H](NC(=O)c6cccnc6)CC[C@]5(C)[C@H]4CC[C@]23C)c1 | 2430 nM |  | 90.3% |  |  |
| C[C@]12CC[C@H](O)C[C@@H]1[C@H](NS(=O)(=O)c1cccnc1)C[C@@H]1[C@@H]2CC[C@]2(C)C(c3cccnc3)=CC[C@@H]12 | 5430 nM |  | 100% |  |  |
| C[C@]12CC[C@H](NC(=O)c3ccncn3)CC1=CC[C@@H]1[C@@H]2CC[C@]2(C)C(n3cnc4ccccc43)=CC[C@@H]12 | 1420 nM |  | 101% |  |  |
| C[C@]12CC[C@H](NC(=O)c3cocn3)CC1=CC[C@@H]1[C@@H]2CC[C@]2(C)C(n3cnc4ccccc43)=CC[C@@H]12 | 2230 nM |  | 95.2% |  |  |
| C[C@]12CC[C@H](NC(=O)c3ccnnc3)CC1=CC[C@@H]1[C@@H]2CC[C@]2(C)C(n3cncn3)=CC[C@@H]12 | 238 nM |  | 64.4% |  | > 3000 nM |
| C[C@]12CC[C@H](NC(=O)c3ccnnc3)CC1=CC[C@@H]1[C@@H]2CC[C@]2(C)C(c3cncc(F)c3)=CC[C@@H]12 | 2210 nM |  | 100% |  |  |
| C[C@]12CC[C@H](NC(=O)c3ccncc3)CC1=CC[C@@H]1[C@@H]2CC[C@]2(C)C(n3cnc4ccccc43)=CC[C@@H]12 | 763 nM | 1550 nM | 104% | 3760 nM |  |
| C[C@]12CC[C@H](NCc3ccncc3)CC1=CC[C@@H]1[C@@H]2CC[C@]2(C)C(n3cnc4ccccc43)=CC[C@@H]12 | 2380 nM |  | 111% |  |  |
| C[C@]12CC[C@H](O)C[C@@H]1[C@@H](OS(C)(=O)=O)C[C@@H]1[C@@H]2CC[C@]2(C)C(c3cccnc3)=CC[C@@H]12 | 1790 nM |  | 100% |  |  |
| C[C@]12CC[C@H](NC(=O)c3cccnc3)CC1=CC[C@@H]1[C@@H]2CC[C@]2(C)C(n3ccnn3)=CC[C@@H]12 | 1390 nM |  | 76.2% |  |  |
| C[C@]12CC[C@H](O)CC1=CC[C@@H]1[C@@H]2CC[C@]2(C)C(n3cnc4ccccc43)=CC[C@@H]12 [GALETERONE] | 3550 nM |  | 110% |  | 16 nM |
| C[C@]12CC[C@H](NC(=O)c3cccnn3)CC1=CC[C@@H]1[C@@H]2CC[C@]2(C)C(n3cnc4ccccc43)=CC[C@@H]12 | 2250 nM |  |  |  |  |

| Compound | IC50 (LNCaP [1]) | IC50 (Androgen receptor [2]) | inhibition at 10 µM (LNCaP [3]) | DC50 (Androgen receptor [4]) | IC50 [5] |
| --- | --- | --- | --- | --- | --- |
| Cc1cncc(C2=CC[C@H]3[C@@H]4CC=C5C[C@@H](NC(=O)c6ccnnc6)CC[C@]5(C)[C@H]4CC[C@]23C)c1 | 743 nM | 1640 nM | 78.2% | 11800 nM |  |
| C[C@]12CC[C@H](NC(=O)c3cscn3)CC1=CC[C@@H]1[C@@H]2CC[C@]2(C)C(n3cnc4ccccc43)=CC[C@@H]12 | 978 nM |  | 63.2% |  |  |
| C[C@]12CC[C@H](NC(=O)c3ccnnc3)CC1=CC[C@@H]1[C@@H]2CC[C@]2(C)C(c3cncnc3)=CC[C@@H]12 | 820 nM |  | 99.7% |  |  |
| Cn1cncc1S(=O)(=O)N[C@H]1CC[C@@]2(C)C(=CC[C@@H]3[C@@H]2CC[C@]2(C)C(n4cnc5ccccc54)=CC[C@@H]32)C1 | 7200 nM |  | 100% |  |  |
| C[C@]12CC[C@H](NC(=O)c3ccncc3)CC1=CC[C@@H]1[C@@H]2CC[C@]2(C)C(c3cncc(F)c3)=CC[C@@H]12 | 1010 nM |  | 104% |  |  |
| C[C@]12CC[C@H](NC(=O)c3ccnnc3)CC1=CC[C@@H]1[C@@H]2CC[C@]2(C)C(n3cnc4ccccc43)=CC[C@@H]12 | 765 nM | 1350 nM | 95.9% | 4780 nM |  |
| Cc1noc(C)c1S(=O)(=O)N[C@H]1CC[C@@]2(C)C(=CC[C@@H]3[C@@H]2CC[C@]2(C)C(n4cnc5ccccc54)=CC[C@@H]32)C1 | 2260 nM |  | 100% |  |  |
| COc1cncc(C2=CC[C@H]3[C@@H]4CC=C5C[C@@H](NC(=O)c6cccnc6)CC[C@]5(C)[C@H]4CC[C@]23C)c1 | > 10000 nM |  |  |  |  |
| CO/N=C1\C[C@@H]2[C@H](CC[C@]3(C)C(c4cccnc4)=CC[C@@H]23)[C@@]2(C)CC[C@H](O)C[C@H]12 | 8120 nM |  | 100% |  |  |
| C[C@]12CC[C@H](O)C[C@@H]1[C@H](NS(C)(=O)=O)C[C@@H]1[C@@H]2CC[C@]2(C)C(c3cccnc3)=CC[C@@H]12 | > 10000 nM |  |  |  |  |
| C[C@]12CC[C@H](NS(=O)(=O)c3cccnc3)CC1=CC[C@@H]1[C@@H]2CC[C@]2(C)C(n3cnc4ccccc43)=CC[C@@H]12 | 1640 nM |  | 93.3% |  |  |
| C[C@]12CC[C@H](O)C[C@@H]1[C@H](CO)C[C@@H]1[C@@H]2CC[C@]2(C)C(c3cccnc3)=CC[C@@H]12 | 2830 nM |  | 88.5% |  |  |
| C[C@]12CC[C@H](NC(=O)c3cccnc3)CC1=CC[C@@H]1[C@@H]2CC[C@]2(C)C(c3cncnc3)=CC[C@@H]12 | > 10000 nM |  |  |  |  |
| C[C@]12CC[C@H](NC(=O)c3cccnc3)CC1=CC[C@@H]1[C@@H]2CC[C@]2(C)C(n3cncn3)=CC[C@@H]12 | 1670 nM |  | 105% |  |  |
| C[C@]12CC[C@H](O)C[C@@H]1[C@H](Oc1ccncn1)C[C@@H]1[C@@H]2CC[C@]2(C)C(c3cccnc3)=CC[C@@H]12 | 3160 nM |  | 91.3% |  |  |
| C[C@]12CC[C@H](O)CC1=CC[C@@H]1[C@@H]2CC[C@]2(C)C(c3cccnc3)=CC[C@@H]12 [ABIRATERONE] | 2710 nM |  | 84.7% |  | 2 nM |
